Reference: patent US4175081A, “5-Substituted thiadiazole ureas” (priority 1977, dated 1979)

How the values were obtained:
Corn (CN) [1] = assay: Pre-emergence herbicide test; type: in vivo; conditions: Zea mays, 336 h, two weeks after treatment; for pest or weed control at 4483.4 g/ha: 4 lb/acre
In short: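 Four corn seeds per pot, sown at seed-diameter depth one day before spraying, got soil surface treatment at 8 lbs/acre (4 lbs/acre formulations also prepared) in 38 gallons/acre. Pots were greenhouse-held with sub-irrigation only. Injury or control was scored visually two weeks after treatment.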

[2] = test system: Yellow foxtail grass (YF); assay: Post-emergence herbicide test; type: in vivo, Setaria glauca; conditions: Setaria, 336 h, two weeks after treatment; for pest or weed control at 4483.4 g/ha: 4 lb/acre
In short: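 Potted seedlings grown in greenhouse, planting staggered to reach the target stage together, then sprayed post-emergence at 8 lbs actual compound/acre in 38 gallons/acre (4 lbs/acre formulations also prepared). Sub-irrigated afterwards. Injury or control rated visually two weeks after treatment.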

Cotton (CT) [3] = assay: Pre-emergence herbicide test; type: in vivo, Gossypium hirsutum var. DPL smooth leaf; conditions: Gossypium hirsutum, 336 h, two weeks after treatment; for pest or weed control at 4483.4 g/ha: 4 lb/acre
In short: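 Crop and weed species seeded one day before treatment, then sprayed pre-emergence at 8 lbs actual compound per acre (also 4 lbs/acre formulations) in 38 gallons per acre. Pots kept in greenhouse with sub-irrigation only; injury or control visually rated two weeks after treatment.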

Barnyard grass (BG) [4] = assay: Post-emergence herbicide test; type: in vivo; conditions: Echinochloa crus-galli, 336 h, two weeks after treatment; for pest or weed control at 4483.4 g/ha: 4 lb/acre
In short: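 Greenhouse pot-grown barnyard grass seedlings sprayed post-emergence at 8 lbs active compound per acre (some at 4 lbs/acre) in 38 gallons per acre, then sub-irrigated. Injury or control rated visually two weeks after treatment.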

Johnson grass (JG) [5] = assay: Pre-emergence herbicide test; type: in vivo, Sorgum helepense; conditions: Sorghum halepense, 336 h, two weeks after treatment; for pest or weed control at 4483.4 g/ha: 4 lb/acre
In short: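 Pots seeded one day before spraying; compound applied pre-emergence at 8 lbs/acre (or 4 lbs/acre) in 38 gallons/acre spray volume. Sub-irrigated in greenhouse; injury/control rated visually two weeks after treatment.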

[6] = test system: Yellow foxtail grass (YF); assay: Pre-emergence herbicide test; type: in vivo, Setaria glauca; conditions: Setaria, 336 h, two weeks after treatment; for pest or weed control at 4483.4 g/ha: 4 lb/acre
In short: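 Seeds surface-sown in potting soil one day before spraying; compounds applied pre-emergence at 8 or 4 lbs/acre in 38 gallons/acre spray. Pots held in greenhouse with sub-irrigation only. Injury or control rated visually two weeks after treatment.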

Turnip (TP) [7] = assay: Post-emergence herbicide test; type: in vivo, Brassica sp.; conditions: Brassica rapa, post-emergence, 336 h, two weeks after treatment; for pest or weed control at 4483.4 g/ha: 4 lb/acre
In short: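 A greenhouse post-emergence herbicide test on turnip. Seeds were sown on the surface of potting soil in 3' plastic pots, lightly covered with screened soil and watered from below. Planting was timed so seedlings had 1 or 2 true leaves above the cotyledons at spraying, done in a hood with a fixed nozzle. Control or injury was scored by eye after two weeks.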

Johnson grass (JG) [8] = assay: Post-emergence herbicide test; type: in vivo, Sorgum helepense; conditions: Sorghum halepense, 336 h, two weeks after treatment; for pest or weed control at 4483.4 g/ha: 4 lb/acre
In short: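 Greenhouse pot-grown seedlings sprayed post-emergence at 8 lbs compound per acre (some at 4 lbs/acre) in 38 gallons per acre spray volume. Sub-irrigated thereafter. Injury/control rated visually two weeks after treatment.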

Turnip (TP) [9] = assay: Pre-emergence herbicide test; type: in vivo, Brassica sp.; conditions: Brassica rapa, pre-emergence, 336 h, two weeks after treatment; for pest or weed control at 4483.4 g/ha: 4 lb/acre
In short: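 Turnip (Brassica sp.) seeds were surface sown in 3' plastic pots of potting soil, covered with a thin layer of screened soil, and sub-irrigated in greenhouse trays. Pots were seeded one day ahead of treatment, sprayed pre-emergence under a hood with a fixed nozzle and moving belt, then kept in the greenhouse.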

Amaranth pigweed (PW) [10] = assay: Pre-emergence herbicide test; type: in vivo, Amaranthus retroflexus; conditions: 336 h, two weeks after treatment; for pest or weed control at 4483.4 g/ha: 4 lb/acre
In short: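 Pigweed was surface-seeded in potted soil one day before spraying at 8 lbs compound per acre, or 4 lbs/acre, in 38 gallons per acre. Pots were kept in the greenhouse with sub-irrigation only; injury or control was rated visually two weeks after treatment.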

Crabgrass (CG) [11] = assay: Pre-emergence herbicide test; type: in vivo, Digitaria sanquinalis; conditions: Digitaria sanguinalis, pre-emergence, 336 h, two weeks after treatment; for pest or weed control at 4483.4 g/ha: 4 lb/acre
In short: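 Crabgrass (Digitaria sanquinalis) was surface seeded in 3' plastic pots of potting soil, covered with screened soil, and watered by sub-irrigation in greenhouse trays. Pots were seeded one day before spraying in a hood with a moving belt and fixed nozzle. Plants stayed in the greenhouse on sub-irrigation, and pre-emergence control was rated visually two weeks after treatment.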

Bean (BN) [12] = assay: Pre-emergence herbicide test; type: in vivo, Phaseolus vulgaris var. Black Valentine; conditions: Phaseolus vulgaris, 336 h, two weeks after treatment; for pest or weed control at 4483.4 g/ha: 4 lb/acre
In short: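 Black Valentine bean was seeded in potting soil one day before spraying. Compound was applied pre-emergence at 8 lbs/acre (also 4 lbs/acre) in 38 gallons per acre. Plants were sub-irrigated and injury or control was rated visually after two weeks.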

Corn (CN) [13] = assay: Post-emergence herbicide test; type: in vivo; conditions: Zea mays, 336 h, two weeks after treatment; for pest or weed control at 4483.4 g/ha: 4 lb/acre
In short: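 Greenhouse seedlings grown in potting soil and sprayed post-emergence at 8 lbs compound/acre (formulations also made for 4 lbs/acre) in 38 gallons/acre spray volume. Watering by sub-irrigation only. Injury or control rated visually two weeks after treatment.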

Crabgrass (CG) [14] = assay: Post-emergence herbicide test; type: in vivo, Digitaria sanquinalis; conditions: Digitaria sanguinalis, post-emergence, 336 h, two weeks after treatment; for pest or weed control at 4483.4 g/ha: 4 lb/acre
In short: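 Crabgrass (Digitaria sanquinalis) was surface seeded individually in 3' plastic pots of potting soil, covered with screened soil, and watered by sub-irrigation in greenhouse trays. Planting was staggered so seedlings reached the target stage together. Post-emergence sprays were applied in a hood with a removable belt and fixed nozzle, and control was visually rated two weeks after treatment.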

Barnyard grass (BG) [15] = assay: Pre-emergence herbicide test; type: in vivo; conditions: Echinochloa crus-galli, 336 h, two weeks after treatment; for pest or weed control at 4483.4 g/ha: 4 lb/acre
In short: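 Barnyard grass surface-seeded in potting soil and sprayed pre-emergence one day after seeding, at 8 or 4 lb compound/acre in 38 gal/acre spray volume. Pots kept in greenhouse with sub-irrigation only; injury or control rated visually two weeks after treatment.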

Bean (BN) [16] = assay: Post-emergence herbicide test; type: in vivo, Phaseolus vulgaris var. Black Valentine; conditions: Phaseolus vulgaris, post-emergence, 336 h, two weeks after treatment; for pest or weed control at 4483.4 g/ha: 4 lb/acre
In short: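 Snapbean (Phaseolus vulgaris var. Black Valentine) was tested post-emergence. Four seeds were sown in 3' plastic pots of potting soil at a depth equal to the seed diameter, then sub-irrigated in greenhouse trays. Planting dates were staggered so plants were sprayed once primary leaves had expanded, with the growing point at the primary leaf nodes.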

Amaranth pigweed (PW) [17] = assay: Post-emergence herbicide test; type: in vivo, Amaranthus retroflexus; conditions: 336 h, two weeks after treatment; for pest or weed control at 4483.4 g/ha: 4 lb/acre
In short: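 Pot-grown pigweed was sprayed post-emergence at the 1–2 true-leaf stage with compound at rates equivalent to 8 lbs per acre (formulations also prepared for 4 lbs/acre) in 38 gallons per acre, using a hood with fixed nozzle. Plants were sub-irrigated in the greenhouse, and injury or control was rated visually two weeks after treatment.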

Cotton (CT) [18] = assay: Post-emergence herbicide test; type: in vivo, Gossypium hirsutum var. DPL smooth leaf; conditions: Gossypium hirsutum, post-emergence, 336 h, two weeks after treatment; for pest or weed control at 4483.4 g/ha: 4 lb/acre
In short: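 Cotton (Gossypium hirsutum var. DPL smooth leaf) was grown in 3' plastic pots of potting soil, four seeds per pot, planted at a depth equal to the seed diameter and watered by sub-irrigation. At the stage of expanded cotyledons with the first true leaf 1' long, plants were sprayed post-emergence in a hood with a fixed nozzle over a moving belt. Percent control was rated visually two weeks later.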

CNC(=O)N(C)c1nnc(C(C)(C)C)s1 [Example 42]
0%: pest or weed control at 2241.7 g/ha (Corn (CN) [1]; 2 lb/acre)
100%: pest or weed control at 8966.8 g/ha ([2]; 8 lb/acre) | pest or weed control at 8966.8 g/ha (Barnyard grass (BG) [4]; 8 lb/acre) | pest or weed control at 8966.8 g/ha (Johnson grass (JG) [5]; 8 lb/acre) | pest or weed control at 2241.7 g/ha (Turnip (TP) [7]; 2 lb/acre) | pest or weed control at 4483.4 g/ha (Turnip (TP) [7]) | pest or weed control at 8966.8 g/ha (Turnip (TP) [7]; 8 lb/acre) | pest or weed control at 8966.8 g/ha (Johnson grass (JG) [8]; 8 lb/acre) | pest or weed control at 2241.7 g/ha (Turnip (TP) [9]; 2 lb/acre) | pest or weed control at 8966.8 g/ha (Turnip (TP) [9]; 8 lb/acre) | pest or weed control at 2241.7 g/ha (Amaranth pigweed (PW) [10]; 2 lb/acre) | pest or weed control at 4483.4 g/ha (Amaranth pigweed (PW) [10]) | pest or weed control at 8966.8 g/ha (Amaranth pigweed (PW) [10]; 8 lb/acre) | pest or weed control at 8966.8 g/ha (Bean (BN) [12]; 8 lb/acre) | pest or weed control at 8966.8 g/ha (Corn (CN) [13]; 8 lb/acre) | pest or weed control at 8966.8 g/ha (Crabgrass (CG) [14]; 8 lb/acre) | pest or weed control at 4483.4 g/ha (Bean (BN) [16]) | pest or weed control at 8966.8 g/ha (Bean (BN) [16]; 8 lb/acre) | pest or weed control at 2241.7 g/ha (Amaranth pigweed (PW) [17]; 2 lb/acre) | pest or weed control at 4483.4 g/ha (Amaranth pigweed (PW) [17]) | pest or weed control at 8966.8 g/ha (Amaranth pigweed (PW) [17]; 8 lb/acre) | pest or weed control at 2241.7 g/ha (Cotton (CT) [18]; 2 lb/acre) | pest or weed control at 4483.4 g/ha (Cotton (CT) [18]) | pest or weed control at 8966.8 g/ha (Cotton (CT) [18]; 8 lb/acre)
40%: pest or weed control at 2241.7 g/ha (Bean (BN) [12]; 2 lb/acre) | pest or weed control (Crabgrass (CG) [14]; 2 lb/acre)
80%: pest or weed control at 4483.4 g/ha [6] | pest or weed control at 2241.7 g/ha (Barnyard grass (BG) [15]; 2 lb/acre) | pest or weed control at 2241.7 g/ha (Bean (BN) [16]; 2 lb/acre)
60%: pest or weed control at 4483.4 g/ha (Corn (CN) [1])
90%: pest or weed control at 8966.8 g/ha (Corn (CN) [1]; 8 lb/acre) | pest or weed control ([2]; 2 lb/acre) | pest or weed control at 4483.4 g/ha [2] | pest or weed control at 8966.8 g/ha (Cotton (CT) [3]; 8 lb/acre) | pest or weed control at 2241.7 g/ha (Barnyard grass (BG) [4]; 2 lb/acre) | pest or weed control at 4483.4 g/ha (Barnyard grass (BG) [4]) | pest or weed control at 4483.4 g/ha (Johnson grass (JG) [5]) | pest or weed control at 2241.7 g/ha ([6]; 2 lb/acre) | pest or weed control at 8966.8 g/ha ([6]; 8 lb/acre) | pest or weed control at 4483.4 g/ha (Johnson grass (JG) [8]) | pest or weed control at 4483.4 g/ha (Turnip (TP) [9]) | pest or weed control (Crabgrass (CG) [11]; 2 lb/acre) | pest or weed control at 4483.4 g/ha (Crabgrass (CG) [11]) | pest or weed control at 8966.8 g/ha (Crabgrass (CG) [11]; 8 lb/acre) | pest or weed control at 4483.4 g/ha (Bean (BN) [12]) | pest or weed control at 4483.4 g/ha (Barnyard grass (BG) [15]) | pest or weed control at 8966.8 g/ha (Barnyard grass (BG) [15]; 8 lb/acre)
70%: pest or weed control at 4483.4 g/ha (Cotton (CT) [3]) | pest or weed control at 2241.7 g/ha (Johnson grass (JG) [5]; 2 lb/acre) | pest or weed control (Johnson grass (JG) [8]; 2 lb/acre) | pest or weed control (Corn (CN) [13]; 2 lb/acre) | pest or weed control at 4483.4 g/ha (Corn (CN) [13]) | pest or weed control at 4483.4 g/ha (Crabgrass (CG) [14])
30%: pest or weed control at 2241.7 g/ha (Cotton (CT) [3]; 2 lb/acre)

CN(C)C(=O)N(C)c1nnc(C(C)(C)C)s1 [Example 43]
90%: pest or weed control at 4483.4 g/ha (Corn (CN) [1]) | pest or weed control at 4483.4 g/ha (Cotton (CT) [3]) | pest or weed control at 4483.4 g/ha (Johnson grass (JG) [5]) | pest or weed control at 4483.4 g/ha (Bean (BN) [12])
100%: pest or weed control at 4483.4 g/ha [2] | pest or weed control at 4483.4 g/ha (Barnyard grass (BG) [4]) | pest or weed control at 4483.4 g/ha [6] | pest or weed control at 4483.4 g/ha (Turnip (TP) [7]) | pest or weed control at 4483.4 g/ha (Johnson grass (JG) [8]) | pest or weed control at 4483.4 g/ha (Turnip (TP) [9]) | pest or weed control at 4483.4 g/ha (Amaranth pigweed (PW) [10]) | pest or weed control at 4483.4 g/ha (Crabgrass (CG) [11]) | pest or weed control at 4483.4 g/ha (Corn (CN) [13]) | pest or weed control at 4483.4 g/ha (Crabgrass (CG) [14]) | pest or weed control at 4483.4 g/ha (Barnyard grass (BG) [15]) | pest or weed control at 4483.4 g/ha (Bean (BN) [16]) | pest or weed control at 4483.4 g/ha (Amaranth pigweed (PW) [17]) | pest or weed control at 4483.4 g/ha (Cotton (CT) [18])
